Values after ≈ are worked out from the molar mass of the structure shown. A value given as a limit tells only on which side of the number the result lay.

Assay type in all cases: cell-based
For one data set, the system named is HIV-1/188-Leu. As to the kind of experiment: Inhibition of HIV-1 induced syncytium formation in CEM cells, RT mutant 188-Leu. The conditions noted are these: Human immunodeficiency virus 1, CCRF-CEM, 96 h, Table 2B, day 4, averages of 2 to 3 independent experiments, read-out: Antiviral Activity of Comparative Compounds EC50, 188-Leu. From the text: (§1) CEM cells were obtained from the American Tissue Cell Culture Collection (Rockville, Md.). HIV-1(IIIB) was originally obtained from the culture supernatant of persistently HIV-1-infected H9 cells and was provided by R. C. Gallo and M. Popovic (National Cancer Institute, National Institutes of Health, Bethesda, Md.). […] 67: 5353-5359 (1993); HIV-1/Lys-138 ("Lys-138") was selected for resistance against TSAO-m^3T as described in Balzarini et al, Virology 192: 246-253 (1993) and Balzarini et al, Proc. Nat. Acad. Sci. USA 90: 6952-6956 (1993); HIV-1/181-Cys ("181-Cys") was selected for resistance against pyridinone L-697,661 as described in Balzarini et al, Virology 192: 246-253 (1993); and HIV-1/188-His ("188-His") was selected for resistance against HEPT as described in Balzarini et al, Mol. Pharmocol. 44: 694-701 (1993). 188-His was then further converted to HIV-1/188-Leu "188-Leu") upon further passage in cell culture in the absence of the HEPT.
(§2) CEM cells were suspended at ≈300,000 cells per ml of culture medium and infected with approximately 100 CCID50 (CCID50 being the 50% cell culture infective dose) of HIV-1(IIIB) or one of the HIV-1 RT mutant strains described above. Then 100 μl of the infected cell suspensions was added to 200 μl microtiter plate wells containing 100 μl of appropriate serial (5-fold) dilutions of the test compounds. The inhibitory effect of the test compounds on HIV-1 induced syncytium formation in CEM cells was examined microscopically on day 4 post infection.

The nature of another data set: in vitro. The note with it: human, cem cells, CC50 (50% cytostatic concentration), Table 2B; CEM cell proliferation; averages of 2 to 3 independent experiments. In short, it runs like this: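 Value is the 50% cytostatic concentration, the compound concentration that inhibits CEM cell proliferation by 50%. HIV-1(IIIB) and NNRTI-resistant variants selected in culture (Lys-138, 181-Cys, 188-His, 188-Leu) were used alongside.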

The subject of another data set is HIV-1/181-Cys. As to the kind of experiment: Inhibition of HIV-1 induced syncytium formation in CEM cells, RT mutant 181-Cys. The conditions noted are these: Human immunodeficiency virus 1, CCRF-CEM, 96 h, Table 2B, day 4, averages of 2 to 3 independent experiments, read-out: Antiviral Activity of Comparative Compounds EC50, 181-Cys. In short, it runs like this:
(§3)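 Read-out: microscopic scoring of syncytium formation on day 4 post infection. CEM cells at ≈300,000/ml, infected with ~100 CCID50 of HIV-1(IIIB) or RT mutant virus, were cultured with 5-fold serial compound dilutions.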

The next data set has as its system HIV-1/Lys-138. In words: Inhibition of HIV-1 induced syncytium formation in CEM cells, RT mutant 138-Lys. The conditions noted are these: Human immunodeficiency virus 1, CCRF-CEM, 96 h, Table 2B, day 4, averages of 2 to 3 independent experiments, read-out: Antiviral Activity of Comparative Compounds EC50, 138-Lys. In outline:
as §3

For the next data set, the system named is HIV-1/106-Ala. In words: Inhibition of HIV-1 induced syncytium formation in CEM cells, RT mutant 106-Ala. The conditions noted are these: Human immunodeficiency virus 1, CCRF-CEM, 96 h, Table 2B, day 4, averages of 2 to 3 independent experiments, read-out: Antiviral Activity of Comparative Compounds EC50, 106-Ala. In outline: as §3
The subject of the next data set is HIV-1(IIIB). In words: Inhibition of HIV-1 induced syncytium formation in CEM cells, wild type. The note with it: Human immunodeficiency virus 1, IIIB, CCRF-CEM, 96 h, Table 2B, WT = HIV-1(IIIB), day 4, averages of 2 to 3 independent experiments, read-out: Antiviral Activity of Comparative Compounds EC50, WT. In outline: as §3
For a further data set, the system named is HIV-1/103-Asn. As to the kind of experiment: Inhibition of HIV-1 induced syncytium formation in CEM cells, RT mutant 103-Asn. The conditions noted are these: Human immunodeficiency virus 1, CCRF-CEM, 96 h, Table 2B, day 4, averages of 2 to 3 independent experiments, read-out: Antiviral Activity of Comparative Compounds EC50, 103-Asn.
Description: as §1, §2

The next data set concerns HIV-1/100-Ile. In words: Inhibition of HIV-1 induced syncytium formation in CEM cells, RT mutant 100-Ile. The conditions noted are these: Human immunodeficiency virus 1, CCRF-CEM, 96 h, Table 2B, day 4, averages of 2 to 3 independent experiments, read-out: Antiviral Activity of Comparative Compounds EC50, 100-Ile. In short, it runs like this: as §3

Usually EC50 stands for the midpoint of the concentration-response curve. One may read the CC50 as the concentration giving 50% cytotoxicity. For the molecule `CC=CCSc1cc(NC(=S)c2ccoc2C)ccc1Cl` [Compound 6], the 50% effective concentration (EC50) in the data set with HIV-1/188-Leu was determined as 1 µg/mL (≈ 2.96 µM); in the data set with HIV-1/181-Cys, 0.045 µg/mL (≈ 0.133 µM); in the data set on HIV-1/Lys-138 it was 0.03 µg/mL (≈ 0.0888 µM); with HIV-1/106-Ala, 0.018 µg/mL (≈ 0.0533 µM); in the data set on HIV-1(IIIB), 0.0041 µg/mL (≈ 0.0121 µM); in the data set on HIV-1/103-Asn, 0.03 µg/mL (≈ 0.0888 µM). Besides, the EC50 in the data set with HIV-1/100-Ile is 0.037 µg/mL (≈ 0.11 µM). In the data set “in vitro”, this molecule gave a CC50 of 4.7 µg/mL (≈ 13.9 µM).
Take `CC1=C(C(=S)Nc2ccc(Cl)c(C=NOC(C)(C)C)c2)CCO1` [Compound 7]: the EC50 in the data set on HIV-1/188-Leu was found to be 1.2 µg/mL (≈ 3.4 µM); in the data set on HIV-1/181-Cys, 0.045 µg/mL (≈ 0.128 µM); in the data set on HIV-1/Lys-138 it was 0.04 µg/mL (≈ 0.113 µM); with HIV-1/106-Ala, 0.03 µg/mL (≈ 0.085 µM); in the data set on HIV-1(IIIB) it was 0.0065 µg/mL (≈ 0.0184 µM); with HIV-1/103-Asn, 0.058 µg/mL (≈ 0.164 µM). Further, the EC50 in the data set with HIV-1/100-Ile was found to be 0.055 µg/mL (≈ 0.156 µM). Further, it took 11 µg/mL (≈ 31.2 µM) to reach half-maximal cytotoxicity in the data set “in vitro” (CC50).
For `CC=CCSc1cc(NC(=S)c2ccsc2C)ccc1Cl` [Compound 8], the 50% effective concentration (EC50) with HIV-1/188-Leu was greater than 2 µg/mL; in the data set on HIV-1/181-Cys it was 0.025 µg/mL (≈ 0.0706 µM); in the data set with HIV-1/Lys-138 it was 0.025 µg/mL (≈ 0.0706 µM); in the data set on HIV-1/106-Ala, 0.023 µg/mL (≈ 0.065 µM); with HIV-1(IIIB) it was 0.0055 µg/mL (≈ 0.0155 µM); in the data set with HIV-1/103-Asn, 0.023 µg/mL (≈ 0.065 µM). Moreover, in the data set on HIV-1/100-Ile, the half-maximal effective concentration (EC50) was 0.032 µg/mL (≈ 0.0904 µM). This molecule also showed a half-maximal cytotoxic concentration (CC50) in the data set “in vitro” of 5.1 µg/mL (≈ 14.4 µM).
As to `Cc1c(C(=S)Nc2ccc(Cl)c(C=NOC(C)(C)C)c2)ccn1C` [Compound 10], the concentration giving a half-maximal response (EC50) in the data set on HIV-1/188-Leu was greater than 2 µg/mL; in the data set on HIV-1/181-Cys, 0.033 µg/mL (≈ 0.0907 µM); in the data set on HIV-1/Lys-138 it was 0.09 µg/mL (≈ 0.247 µM); in the data set with HIV-1/106-Ala, 0.23 µg/mL (≈ 0.632 µM); in the data set with HIV-1(IIIB) it was 0.02 µg/mL (≈ 0.055 µM); in the data set on HIV-1/103-Asn it was 1.27 µg/mL (≈ 3.49 µM). Also, the EC50 in the data set with HIV-1/100-Ile is 0.65 µg/mL (≈ 1.79 µM). This molecule also returned a CC50 in the data set “in vitro” of 6.5 µg/mL (≈ 17.9 µM).
Take `Cn1ccc(C(=S)Nc2ccc(Cl)c(C=NOC(C)(C)C)c2)c1` [Compound 11]: the concentration for a half-maximal effect (EC50) with HIV-1/188-Leu is greater than 2 µg/mL; in the data set on HIV-1/181-Cys, 0.045 µg/mL (≈ 0.129 µM); in the data set on HIV-1/Lys-138 it was 0.13 µg/mL (≈ 0.372 µM); in the data set on HIV-1/106-Ala it was 0.1 µg/mL (≈ 0.286 µM); in the data set on HIV-1(IIIB), 0.029 µg/mL (≈ 0.0829 µM); with HIV-1/103-Asn, 0.17 µg/mL (≈ 0.486 µM). Also, the EC50 in the data set on HIV-1/100-Ile amounted to 0.13 µg/mL (≈ 0.372 µM). The same molecule gave a cytotoxic concentration (CC50) in the data set “in vitro” of 13 µg/mL (≈ 37.2 µM).
Turning to `Cc1sccc1C(=S)Nc1ccc(Cl)c(OCCC(C)C)c1` [Compound 12], the EC50 in the data set on HIV-1/188-Leu is greater than 2 µg/mL; in the data set on HIV-1/181-Cys it was 0.07 µg/mL (≈ 0.198 µM); in the data set with HIV-1/Lys-138, 0.035 µg/mL (≈ 0.0989 µM); in the data set with HIV-1/106-Ala it was 0.08 µg/mL (≈ 0.226 µM); in the data set on HIV-1(IIIB) it was 0.007 µg/mL (≈ 0.0198 µM); in the data set on HIV-1/103-Asn, 0.035 µg/mL (≈ 0.0989 µM). Further, in the data set on HIV-1/100-Ile, the concentration for a half-maximal effect (EC50) was 0.035 µg/mL (≈ 0.0989 µM). In addition, the CC50 in “in vitro” was greater than 100 µg/mL.
For `CCC1=C(C(=O)Nc2ccc(Cl)c(C(=O)OC3CCCCC3)c2)SCCO1` [Compound 13], the EC50 with HIV-1/188-Leu is no less than 2 µg/mL; in the data set on HIV-1/181-Cys it was 0.07 µg/mL (≈ 0.171 µM); in the data set with HIV-1/Lys-138 it was 0.25 µg/mL (≈ 0.61 µM); with HIV-1/106-Ala, 0.17 µg/mL (≈ 0.415 µM); in the data set with HIV-1(IIIB), 0.08 µg/mL (≈ 0.195 µM); in the data set on HIV-1/103-Asn, 0.38 µg/mL (≈ 0.927 µM). The concentration for a half-maximal effect (EC50) with HIV-1/100-Ile was 0.26 µg/mL (≈ 0.634 µM). For the same molecule, the midpoint of cytotoxicity in “in vitro”, the CC50, lay at 11.4 µg/mL (≈ 27.8 µM).
On to `Cc1sccc1C(=S)Nc1ccc(Cl)c(OCC(=O)OC(C)(C)C)c1` [Compound 14], for which the concentration for a half-maximal effect (EC50) is greater than 2 µg/mL in the data set with HIV-1/188-Leu; 0.087 µg/mL (≈ 0.219 µM) in the data set on HIV-1/181-Cys; 0.24 µg/mL (≈ 0.603 µM) in the data set with HIV-1/Lys-138; 0.1 µg/mL (≈ 0.251 µM) in the data set with HIV-1/106-Ala; 0.067 µg/mL (≈ 0.168 µM) in the data set with HIV-1(IIIB); 0.12 µg/mL (≈ 0.302 µM) with HIV-1/103-Asn. For the same molecule, the EC50 with HIV-1/100-Ile came to 0.16 µg/mL (≈ 0.402 µM). The molecule also registered a CC50 in “in vitro” of 2.1 µg/mL (≈ 5.28 µM).
`CCC1=C(C(=O)Nc2ccc(Cl)c(C=NOC(C)(C)C)c2)SCCO1` [Compound 15]: the EC50 with HIV-1/188-Leu was greater than 2 µg/mL; in the data set with HIV-1/181-Cys it was 0.09 µg/mL (≈ 0.235 µM); with HIV-1/Lys-138, 0.07 µg/mL (≈ 0.183 µM); with HIV-1/106-Ala, 0.06 µg/mL (≈ 0.157 µM); with HIV-1(IIIB), 0.03 µg/mL (≈ 0.0783 µM); with HIV-1/103-Asn, 0.065 µg/mL (≈ 0.17 µM). Besides, in the data set with HIV-1/100-Ile, the concentration for a half-maximal effect (EC50) turned out to be 0.06 µg/mL (≈ 0.157 µM). This molecule displayed a CC50 in “in vitro” of 11.4 µg/mL (≈ 29.8 µM).

The values above are taken from patent publication US5696151A, “Compounds useful for the inhibition of the replication of HIV-1 and HIV-1 mutants” (priority 1995, dated 1997).
